Experimental data: PMC8041284, “Tunable Methacrylamides for Covalent Ligand Directed Release Chemistry” (Journal of the American Chemical Society, 2021)

Target: BTK (Homo sapiens, UniProt Q06187)
Experiment: biochemical
Details: read-out: BTK inhibition (%), 0.75 uM BTK, […] probe 3l, 15 min preincubation

Sequence of BTK (Q06187 402-655 limits assumed): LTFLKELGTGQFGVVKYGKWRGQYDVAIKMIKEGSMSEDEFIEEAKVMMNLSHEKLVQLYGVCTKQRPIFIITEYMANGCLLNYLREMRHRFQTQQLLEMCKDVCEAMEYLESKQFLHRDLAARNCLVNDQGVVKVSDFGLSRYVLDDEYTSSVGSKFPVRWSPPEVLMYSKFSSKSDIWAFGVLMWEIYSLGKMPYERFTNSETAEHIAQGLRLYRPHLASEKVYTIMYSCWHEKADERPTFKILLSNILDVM

Structure (SMILES)	inhibition at 10 µM [%]
C[C@]12CC[C@@H]3c4ccc(O)cc4CC[C@H]3[C@@H]1CC[C@@H]2OC(=O)CCC1CCCC1 [PCM-0214748]	0.8
COc1cccc2c1C(=O)c1c(O)c3c(c(O)c1C2=O)C[C@@](O)(C(=O)CO)C[C@@H]3O[C@H]1C[C@H](N)[C@H](O[C@@H]2CCCCO2)[C@H](C)O1 [PCM-0214749]	53.7
CC(C)[C@H](N)C(=O)OCC(CO)OCn1cnc2c(=O)[nH]c(N)nc21 (stereo partly drawn) [PCM-0214750]	-2.3
OC[C@@H](O)CN1CCN(c2ccccc2)CC1 [PCM-0214752]	-22.8
COc1cc(C(=O)NC2CCCNC2)cc(OC)c1OC (stereo not drawn) [PCM-0214753]	-3.1
CCCCCCCCCCCCCCCCO [PCM-0214755]	-3.9
Nc1c(CC(=O)O)cccc1C(=O)c1ccccc1 [PCM-0214756]	-17.2
CC(C)NCC(O)c1ccccc1Cl (stereo not drawn) [PCM-0214757]	10.9
CC1(C)S[C@@H]2[C@H](NC(=O)[C@H](NC(=O)N3CCN(S(C)(=O)=O)C3=O)c3ccccc3)C(=O)N2[C@H]1C(=O)O [PCM-0214758]	-19.5
CN(C)Cc1ccc(S(=O)(=O)n2ccc(/C=C/C(=O)NO)c2)cc1 [PCM-0214759]	9.3
C=CC(=O)N1C/C(=C\c2ccc([N+](=O)[O-])cc2)C(=O)/C(=C/c2ccc([N+](=O)[O-])cc2)C1 [PCM-0214766]	-15.6

The next lines start with the values.

inhibition at 10 µM [%]	Structure (SMILES)
30.4	COc1ccc2cc1Oc1ccc(cc1)C[C@H]1c3c(cc4c(c3Oc3cc5c(cc3OC)CCN(C)[C@@H]5C2)OCO4)CCN1C [PCM-0214760]
-11.7	CC(=O)OCC(=O)[C@H]1CC[C@H]2[C@@H]3CCC4=CC(=O)CC[C@]4(C)[C@H]3CC[C@]12C [PCM-0214761]
-10.9	CC[C@H]1OC(=O)[C@H](C)[C@@H](O[C@H]2C[C@@](C)(OC)[C@@H](O)[C@H](C)O2)[C@H](C)[C@@H](O[C@@H]2O[C@H](C)C[C@H](N(C)C)[C@H]2O)[C@](C)(O)C[C@@H](C)[C@@H]2N[C@@H](COCCOC)O[C@H]([C@H]2C)[C@]1(C)O [PCM-0214762]
-14.8	CCCCCCCCCCCC[N+](C)(C)CCOc1ccccc1 [PCM-0214763]
0	CC(O)=C(C#N)C(=O)Nc1ccc(C(F)(F)F)cc1 [PCM-0214764]
20.2	C=C[C@]1(C)C[C@@H](OC(=O)CSC(C)(C)CNC(=O)[C@H](N)C(C)C)[C@]2(C)[C@H](C)CC[C@]3(CCC(=O)[C@H]32)[C@@H](C)[C@@H]1O [PCM-0214765]
-3.4	CCCC(=O)O[C@]1(C(=O)COC(C)=O)CC[C@H]2[C@@H]3C[C@H](F)C4=CC(=O)C=C[C@]4(C)[C@@]3(F)[C@@H](O)C[C@@]21C [PCM-0214767]
22.8	CCC(=O)O[C@]1(C(=O)CCl)[C@@H](C)C[C@H]2[C@@H]3C[C@H](F)C4=CC(=O)C=C[C@]4(C)[C@@]3(F)[C@@H](O)C[C@@]21C [PCM-0214768]
0.8	CC(C)NC[C@H](O)COc1ccc(CCOCC2CC2)cc1 [PCM-0214769]
-8.6	OCC(CO)N[C@H]1C[C@](O)(CO)[C@@H](O)[C@H](O)[C@H]1O [PCM-0214770]
-10.1	CC1(C)S[C@@H]2[C@H](NC(=O)Cc3ccccc3)C(=O)N2[C@H]1C(=O)O [PCM-0214771]
3.1	CC(C)(C)C1CCC(CC2=C(O)c3ccccc3C(=O)C2=O)CC1 (stereo not drawn) [PCM-0214772]
7.8	OC[C@@H](O)[C@@H](O)CO [PCM-0214773]
45.9	CCc1c(Cl)c(O)c(Cl)c(O)c1C(=O)O[C@H]1[C@H](O)[C@H](OC)[C@H](OC/C2=C\C=C\C[C@H](O)/C(C)=C/[C@H](CC)[C@@H](O[C@@H]3OC(C)(C)[C@@H](OC(=O)C(C)C)[C@H](O)[C@@H]3O)/C(C)=C/C(C)=C/C[C@@H]([C@@H](C)O)OC2=O)O[C@@H]1C [PCM-0214774]
-3.9	O[C@@H]1CO[C@H]2[C@@H]1OC[C@@H]2O [PCM-0214776]
-47.6	Nc1c(CC(=O)O)cccc1C(=O)c1ccc(Br)cc1 [PCM-0214777]
